Results reported in the supplement of paper PMC10307832.

Key:
Experiment in all cases: relative viability (nuclei count vs DMSO), 5 days (fraction); higher = more cells survive
IPA-3 + OSI-027 = compound: C1=CC=C2C(=C1)C=CC(=C2SSC3=C(C=CC4=CC=CC=C43)O)O [IPA-3] + COc1cccc2cc(-c3nc([C@H]4CC[C@H](C(=O)O)CC4)n4ncnc(N)c34)[nH]c12 [OSI-027] (partner 0.5 µM)
Method in brief: (§1)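 The day after seeding in 1536-well plates, lung cancer cell lines were treated by pin tool with a single drug, or with a fixed anchor-drug dose together with five library-drug doses (not always all listed) in √10 steps. After 5 days, a combined fix-and-stain solution (final 0.05% Triton X-100, 1% formaldehyde, 1 ug/ml Hoechst) was added. Nuclei counted on 4× images gave relative viability as treated counts over vehicle counts, reported as the median of duplicate plates.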

Doramapimod + AZD7762 = compound: Cc1ccc(-n2nc(C(C)(C)C)cc2NC(=O)Nc2ccc(OCCN3CCOCC3)c3ccccc23)cc1 [Doramapimod] + NC(=O)Nc1cc(-c2cccc(F)c2)sc1C(=O)N[C@H]1CCCNC1 [AZD7762] (partner 0.2 µM)
Method in brief: as §1

RAF265 + OSI-027 = compound: Cn1c(Nc2ccc(C(F)(F)F)cc2)nc2cc(Oc3ccnc(-c4ncc(C(F)(F)F)[nH]4)c3)ccc21 [RAF265] + COc1cccc2cc(-c3nc([C@H]4CC[C@H](C(=O)O)CC4)n4ncnc(N)c34)[nH]c12 [OSI-027] (partner 0.5 µM)
Method in brief: as §1

RAF265 + Phenformin = compound: Cn1c(Nc2ccc(C(F)(F)F)cc2)nc2cc(Oc3ccnc(-c4ncc(C(F)(F)F)[nH]4)c3)ccc21 [RAF265] + N=C(N)NC(=N)NCCc1ccccc1 [Phenformin] (partner 250 µM)
Method in brief: as §1

In the case of LCLC-97TM1, the relative viability (IPA-3 + OSI-027; first compound 0.2 µM) is reported as 0.403, the relative viability (IPA-3 + OSI-027; first compound 0.6325 µM) is reported as 0.521 and the relative viability (IPA-3 + OSI-027; first compound 2 µM) is reported as 0.436. For the same cell line, the relative viability (IPA-3 + OSI-027; first compound 6.325 µM) was 0.498, the relative viability (IPA-3 + OSI-027; first compound 20 µM) was 0.502 and the relative viability (Doramapimod + AZD7762; first compound 0.02 µM) was 0.323. It also gave a relative viability (Doramapimod + AZD7762; first compound 0.06325 µM) of 0.328, a relative viability (Doramapimod + AZD7762; first compound 0.2 µM) of 0.289 and a relative viability (Doramapimod + AZD7762; first compound 0.6325 µM) of 0.168. For the same cell line, the relative viability (Doramapimod + AZD7762; first compound 2 µM) was 0.304, the relative viability (RAF265 + OSI-027; first compound 0.01 µM) was 0.516 and the relative viability (RAF265 + OSI-027; first compound 0.03162 µM) was 0.328. It also gave a relative viability (RAF265 + OSI-027; first compound 0.1 µM) of 0.215, a relative viability (RAF265 + OSI-027; first compound 0.3162 µM) of 0.416 and a relative viability (RAF265 + OSI-027; first compound 1 µM) of 0.0767. It also gave a relative viability (RAF265 + Phenformin; first compound 0.01 µM) of 0.42, a relative viability (RAF265 + Phenformin; first compound 0.03162 µM) of 0.384 and a relative viability (RAF265 + Phenformin; first compound 0.1 µM) of 0.21. It also gave a relative viability (RAF265 + Phenformin; first compound 0.3162 µM) of 0.252 and a relative viability (RAF265 + Phenformin; first compound 1 µM) of 0.148.

In the case of BEN, the relative viability (IPA-3 + OSI-027; first compound 0.2 µM) is reported as 0.309, the relative viability (IPA-3 + OSI-027; first compound 0.6325 µM) is reported as 0.295 and the relative viability (IPA-3 + OSI-027; first compound 2 µM) is reported as 0.288. For the same cell line, the relative viability (IPA-3 + OSI-027; first compound 6.325 µM) was 0.302, the relative viability (IPA-3 + OSI-027; first compound 20 µM) was 0.333 and the relative viability (Doramapimod + AZD7762; first compound 0.02 µM) was 0.58. For the same cell line, the relative viability (Doramapimod + AZD7762; first compound 0.06325 µM) was 0.724, the relative viability (Doramapimod + AZD7762; first compound 0.2 µM) was 0.72 and the relative viability (Doramapimod + AZD7762; first compound 0.6325 µM) was 0.597. It also gave a relative viability (Doramapimod + AZD7762; first compound 2 µM) of 0.681, a relative viability (RAF265 + OSI-027; first compound 0.01 µM) of 0.261 and a relative viability (RAF265 + OSI-027; first compound 0.03162 µM) of 0.29. It also gave a relative viability (RAF265 + OSI-027; first compound 0.1 µM) of 0.312, a relative viability (RAF265 + OSI-027; first compound 0.3162 µM) of 0.311 and a relative viability (RAF265 + OSI-027; first compound 1 µM) of 0.293. For the same cell line, the relative viability (RAF265 + Phenformin; first compound 0.01 µM) was 0.276, the relative viability (RAF265 + Phenformin; first compound 0.03162 µM) was 0.267 and the relative viability (RAF265 + Phenformin; first compound 0.1 µM) was 0.274. It also gave a relative viability (RAF265 + Phenformin; first compound 0.3162 µM) of 0.263 and a relative viability (RAF265 + Phenformin; first compound 1 µM) of 0.239.

LC-2-ad showed a relative viability (IPA-3 + OSI-027; first compound 0.2 µM) of 0.937, a relative viability (IPA-3 + OSI-027; first compound 0.6325 µM) of 0.878 and a relative viability (IPA-3 + OSI-027; first compound 2 µM) of 0.858. It also gave a relative viability (IPA-3 + OSI-027; first compound 6.325 µM) of 0.871, a relative viability (IPA-3 + OSI-027; first compound 20 µM) of 1.02 and a relative viability (Doramapimod + AZD7762; first compound 0.02 µM) of 0.826. It also gave a relative viability (Doramapimod + AZD7762; first compound 0.06325 µM) of 0.916, a relative viability (Doramapimod + AZD7762; first compound 0.2 µM) of 0.874 and a relative viability (Doramapimod + AZD7762; first compound 0.6325 µM) of 0.988. It also gave a relative viability (Doramapimod + AZD7762; first compound 2 µM) of 0.84, a relative viability (RAF265 + OSI-027; first compound 0.01 µM) of 0.969 and a relative viability (RAF265 + OSI-027; first compound 0.03162 µM) of 0.798. It also gave a relative viability (RAF265 + OSI-027; first compound 0.1 µM) of 0.902, a relative viability (RAF265 + OSI-027; first compound 0.3162 µM) of 0.442 and a relative viability (RAF265 + OSI-027; first compound 1 µM) of 0.378. The relative viability (RAF265 + Phenformin; first compound 0.01 µM) was 0.628, the relative viability (RAF265 + Phenformin; first compound 0.03162 µM) was 0.581 and the relative viability (RAF265 + Phenformin; first compound 0.1 µM) was 0.586. It also gave a relative viability (RAF265 + Phenformin; first compound 0.3162 µM) of 0.394 and a relative viability (RAF265 + Phenformin; first compound 1 µM) of 0.455.
